Series [1] relates to Staphylococcus aureus. Description: Antibacterial activity against methicillin-resistant Staphylococcus aureus 575 assessed as inhibition of bacterial growth incubated for 24 hrs by broth microdilution method. The class given is functional.
In series [2] the test system is Salmonella enterica. Description: Antibacterial activity against Salmonella enterica ATCC 14028 assessed as inhibition of bacterial growth incubated for 24 hrs by broth microdilution method. The class given is functional.
Series [3] relates to Pseudomonas aeruginosa. The series is described as follows: Antibacterial activity against multidrug-resistant Pseudomonas aeruginosa 126 assessed as inhibition of bacterial growth incubated for 24 hrs by broth microdilution method. The class given is functional.
Series [4] relates to Klebsiella pneumoniae. The series is described as follows: Antibacterial activity against multidrug-resistant Klebsiella pneumoniae 893 assessed as inhibition of bacterial growth incubated for 24 hrs by broth microdilution method. Format: functional.
Series [5] has as its system Staphylococcus aureus. The series is described as follows: Antibacterial activity against methicillin-resistant Staphylococcus aureus 596 assessed as inhibition of bacterial growth incubated for 24 hrs by broth microdilution method. Format: functional.
The test system of series [6] is Acinetobacter baumannii. Description: Antibacterial activity against Acinetobacter baumannii ATCC 19606 assessed as inhibition of bacterial growth incubated for 24 hrs by broth microdilution method. Format: functional.
Series [7] in a line: Cytotoxicity against human A549 cells assessed as reduction in cell viability measured after 48 hrs by CCK8 assay. The class given is toxicity, cell-based.
Series [8] can be described thus: Aqueous solubility of the compound in physiological saline measured after 12 hrs by UV spectrophotometric analysis. Format: physicochemical.
The test system of series [9] is Staphylococcus aureus. The series is described as follows: Antibacterial activity against methicillin-resistant Staphylococcus aureus 171 assessed as inhibition of bacterial growth incubated for 24 hrs by broth microdilution method. Format: functional.
In series [10] the test system is Enterococcus. The series is described as follows: Antibacterial activity against vancomycin-resistant Enterococcus 80 assessed as inhibition of bacterial growth incubated for 24 hrs by broth microdilution method. The class given is functional.
Series [11] can be described thus: Cytotoxicity against human HepG2 cells assessed as reduction in cell viability measured after 48 hrs by CCK8 assay. Format: toxicity, cell-based.
For series [12], the system named is Staphylococcus epidermidis. The series is described as follows: Antibacterial activity against methicillin-resistant Staphylococcus epidermidis ATCC 51625 assessed as inhibition of bacterial growth incubated for 24 hrs by broth microdilution method. Format: functional.
Series [13] has as its system Staphylococcus aureus. Description: Antibacterial activity against […] assessed as inhibition of bacterial growth incubated for 24 hrs by broth microdilution method. The class given is functional. Particulars: ATCC 29213.
Series [14] has as its system Staphylococcus aureus. Description: Antibacterial activity against methicillin-resistant Staphylococcus aureus ATCC 43300 assessed as inhibition of bacterial growth incubated for 24 hrs by broth microdilution method. The class given is functional.
In series [15] the test system is Escherichia coli. Description: Antibacterial activity against Escherichia coli CMCC 44103 assessed as inhibition of bacterial growth incubated for 24 hrs by broth microdilution method. Format: functional.
In series [16] the test system is Acinetobacter baumannii. Description: Antibacterial activity against carbapenem-resistant Acinetobacter baumannii 882 assessed as inhibition of bacterial growth incubated for 24 hrs by broth microdilution method. Format: functional.
Series [17] concerns Staphylococcus aureus. The series is described as follows: Antibacterial activity against methicillin-resistant Staphylococcus aureus ATCC 33591 assessed as inhibition of bacterial growth incubated for 24 hrs by broth microdilution method. Format: functional.
A short description of series [18]: Cytotoxicity against human HEK293 cells assessed as reduction in cell viability measured after 48 hrs by CCK8 assay. Format: toxicity, cell-based.
Series [19] relates to Staphylococcus aureus. The series is described as follows: Antibacterial activity against methicillin-resistant Staphylococcus aureus 222 assessed as inhibition of bacterial growth incubated for 24 hrs by broth microdilution method. The class given is functional.
In series [20] the test system is Staphylococcus aureus. Description: Antibacterial activity against methicillin-resistant Staphylococcus aureus 206 assessed as inhibition of bacterial growth incubated for 24 hrs by broth microdilution method. Format: functional.
Series [21] has as its system Escherichia coli. Description: Antibacterial activity against Escherichia coli ATCC 25922 assessed as inhibition of bacterial growth incubated for 24 hrs by broth microdilution method. Format: functional.

≈ marks a conversion by molar mass, not a printed value.

Turning to `C=C[C@]1(C)C[C@@H](OC(=O)CS[C@@H]2C[C@H]3CC[C@@H](C2)N3C)[C@]2(C)[C@H](C)CC[C@]3(CCC(=O)[C@H]32)[C@@H](C)[C@@H]1O` [RETAPAMULIN], the minimal inhibitory concentration (MIC) in [1] came to 64 µg/mL (≈ 124 µM); in series [2], 128 µg/mL (≈ 247 µM); in series [3] it was 128 µg/mL (≈ 247 µM); in [4], 64 µg/mL (≈ 124 µM); in series [5], 32 µg/mL (≈ 61.8 µM); in series [6], 4 µg/mL (≈ 7.73 µM). Also, the MIC in [9] was 128 µg/mL (≈ 247 µM); in series [10], greater than 128 µg/mL; in series [12] it was 64 µg/mL (≈ 124 µM); in series [13], 4 µg/mL (≈ 7.73 µM); in series [14], 16 µg/mL (≈ 30.9 µM); in series [15], 32 µg/mL (≈ 61.8 µM). Moreover, the MIC worked out at 64 µg/mL (≈ 124 µM) in series [16]; 32 µg/mL (≈ 61.8 µM) in series [17]; 32 µg/mL (≈ 61.8 µM) in [19]; 128 µg/mL (≈ 247 µM) in series [20]; 32 µg/mL (≈ 61.8 µM) in series [21]. For the same compound, the CC50 at 48 h is greater than 100 µM in [7], 76.5 µM in series [11] and 83.8 µM in series [18]. The amount in solution in series [8] (solubility at 12 h) came to 289 µM (≈ 150 µg/mL).
In the case of `COc1c(N2C[C@@H]3CCCN[C@@H]3C2)c(F)cc2c(=O)c(C(=O)O)cn(C3CC3)c12` [MOXIFLOXACIN], the MIC in series [1] stood at 8 µg/mL (≈ 19.9 µM); in series [2] it was 2 µg/mL (≈ 4.98 µM); in series [3] it was 8 µg/mL (≈ 19.9 µM); in series [4], 16 µg/mL (≈ 39.9 µM); in [5], 2 µg/mL (≈ 4.98 µM); in [6], 2 µg/mL (≈ 4.98 µM). Moreover, the minimal inhibitory concentration (MIC) stood at 32 µg/mL (≈ 79.7 µM) in series [9]; 0.5 µg/mL (≈ 1.25 µM) in series [10]; 0.5 µg/mL (≈ 1.25 µM) in [12]; 0.062 µg/mL (≈ 0.154 µM) in series [13]; 0.25 µg/mL (≈ 0.623 µM) in [14]; 0.25 µg/mL (≈ 0.623 µM) in series [15]. The MIC in [16] came to 32 µg/mL (≈ 79.7 µM); in series [17] it was 1 µg/mL (≈ 2.49 µM); in series [19], 0.5 µg/mL (≈ 1.25 µM); in series [20], 4 µg/mL (≈ 9.96 µM); in series [21], 0.125 µg/mL (≈ 0.311 µM).
As to `C=C[C@]1(C)C[C@@H](OC(=O)CSc2nc(-c3cc[n+](Cc4ccc(OC)cc4)cc3)cs2)[C@]2(C)[C@H](C)CC[C@]3(CCC(=O)[C@H]32)[C@@H](C)[C@@H]1O.[Br-]`, the MIC amounted to 32 µg/mL in series [1]; 0.5 µg/mL in series [2]; 64 µg/mL in series [3]; 64 µg/mL in series [4]; 8 µg/mL in [5]; 2 µg/mL in series [6]. Also, the MIC in series [9] worked out at 16 µg/mL; in series [10], 2 µg/mL; in series [12], 4 µg/mL; in series [13], 0.5 µg/mL; in series [14], 1 µg/mL; in series [15], 1 µg/mL. Further, the MIC in series [16] amounted to 8 µg/mL; in [17], 1 µg/mL; in [19], 4 µg/mL; in series [20], 16 µg/mL; in [21], 0.5 µg/mL. Also, the half-maximal cytotoxic concentration (CC50) at 48 h in series [7] was 87.4 µM; in series [11] it was greater than 100 µM; in series [18] it was 95.4 µM. The solubility at 12 h in series [8] was 653 µM.
In the case of `C=C[C@]1(C)C[C@@H](OC(=O)CSc2nc(-c3cc[n+](Cc4ccsc4)cc3)cs2)[C@]2(C)[C@H](C)CC[C@]3(CCC(=O)[C@H]32)[C@@H](C)[C@@H]1O.[Br-]`, the minimum inhibitory concentration (MIC) in [2] turned out to be 2 µg/mL; in series [6], 8 µg/mL; in [12], 1 µg/mL; in series [13] it was 0.25 µg/mL; in [14] it was 0.5 µg/mL; in series [15], 0.5 µg/mL. For the same compound, the MIC in series [17] and in series [21] was 1 µg/mL each time. This compound showed a solubility at 12 h in [8] of 702 µM.
For the compound `C=C[C@]1(C)C[C@@H](OC(=O)CSc2nc(-c3cc[n+](Cc4ccc(OC(F)(F)F)cc4)cc3)cs2)[C@]2(C)[C@H](C)CC[C@]3(CCC(=O)[C@H]32)[C@@H](C)[C@@H]1O.[Br-]`, the MIC in [2] came out at 4 µg/mL; in series [6], 8 µg/mL; in series [12], 4 µg/mL; in series [13], 2 µg/mL; in [14], 2 µg/mL; in series [15], 32 µg/mL. The MIC in series [17] and in series [21] was 2 µg/mL throughout. In addition, the solubility at 12 h in series [8] is 537 µM.
As to `C=C[C@]1(C)C[C@@H](OC(=O)CSc2nc(-c3cc[n+](Cc4ccc(F)cc4)cc3)cs2)[C@]2(C)[C@H](C)CC[C@]3(CCC(=O)[C@H]32)[C@@H](C)[C@@H]1O.[Br-]`, the MIC was found to be 1 µg/mL in [2]; 16 µg/mL in [6]; 4 µg/mL in series [12]; 1 µg/mL in series [13]; 8 µg/mL in [14]; 1 µg/mL in series [15]. The MIC in series [17] and in series [21] was 2 µg/mL in each case. The concentration in solution in series [8] (solubility at 12 h) was 807 µM.
`C=C[C@]1(C)C[C@@H](OC(=O)CSc2nc(-c3cc[n+](CCCC)cc3)cs2)[C@]2(C)[C@H](C)CC[C@]3(CCC(=O)[C@H]32)[C@@H](C)[C@@H]1O.[Br-]`: the minimal inhibitory concentration (MIC) came to 2 µg/mL in series [2]; 16 µg/mL in series [6]; 4 µg/mL in [12]; 4 µg/mL in series [13]; 4 µg/mL in series [14]; 4 µg/mL in [15]. Besides, the results for the minimal inhibitory concentration (MIC) in [17] and in series [21] were 2 µg/mL and 16 µg/mL, respectively. For the same compound, in series [8], the solubility at 12 h was 672 µM.
As to `C=C[C@]1(C)C[C@@H](OC(=O)CSc2nc(-c3cc[n+](Cc4ccc(Cl)cc4)cc3)cs2)[C@]2(C)[C@H](C)CC[C@]3(CCC(=O)[C@H]32)[C@@H](C)[C@@H]1O.[Br-]`, the MIC worked out at 2 µg/mL in series [2]; 2 µg/mL in [6]; 8 µg/mL in series [12]; 0.125 µg/mL in series [13]; 2 µg/mL in [14]; 1 µg/mL in series [15]. Moreover, the MIC in series [17] was determined as 2 µg/mL; in [21], 0.5 µg/mL. In addition, in [8], the solubility at 12 h came out at 649 µM.
For the compound `C=C[C@]1(C)C[C@@H](OC(=O)CSc2nc(-c3cc[n+](Cc4ccc(C(C)(C)C)cc4)cc3)cs2)[C@]2(C)[C@H](C)CC[C@]3(CCC(=O)[C@H]32)[C@@H](C)[C@@H]1O.[Br-]`, the MIC turned out to be 2 µg/mL in [2]; 2 µg/mL in [6]; 2 µg/mL in [12]; 0.25 µg/mL in series [13]; 2 µg/mL in series [14]; 2 µg/mL in series [15]. The MIC was determined as 1 µg/mL in [17] and 2 µg/mL in [21]. Moreover, the concentration in solution in [8] (solubility at 12 h) was 306 µM.
For the compound `Br.C=C[C@]1(C)C[C@@H](OC(=O)CSc2nc(-c3cc[n+](Cc4ccc([N+](=O)[O-])cc4)cc3)cs2)[C@]2(C)[C@H](C)CC[C@]3(CCC(=O)[C@H]32)[C@@H](C)[C@@H]1O`, the MIC was 16 µg/mL in [1]; 2 µg/mL in series [2]; 8 µg/mL in [3]; 16 µg/mL in [4]; 2 µg/mL in [5]; 2 µg/mL in [6]. In addition, the minimum inhibitory concentration (MIC) in [9] was 64 µg/mL; in series [10], 8 µg/mL; in series [12], 2 µg/mL; in series [13], 0.125 µg/mL; in series [14] it was 0.5 µg/mL; in [15], 0.5 µg/mL. In addition, the MIC in [16] was 16 µg/mL; in [17], 1 µg/mL; in series [19], 2 µg/mL; in series [20], 16 µg/mL; in series [21], 1 µg/mL. Further, the figures for the CC50 at 48 h in series [7], in [11] and in series [18] were greater than 100 µM, 75.8 µM and 86.7 µM, respectively. The solubility at 12 h in series [8] stood at 754 µM.
